Data from paper PMC4920374 (Bioorganic & medicinal chemistry, 2016).
Like-named read-outs stand apart in the source and are kept apart here.

Assays:
[1] = test system: Mer TK; conditions: cited from earlier work
[2] = test system: KB-vin (vincristine-resistant KB subline); test: Antiproliferative SRB assay, KB-vin; assay type: cell-based, human
[3] = test system: KB (epidermoid carcinoma of the nasopharynx); test: Antiproliferative SRB assay, KB; assay type: cell-based, human
[4] = test system: A549 (human lung carcinoma); test: Antiproliferative SRB assay, A549; assay type: cell-based; conditions: A549, read-out: GI50 A549
[5] = test system: DU145 (prostate cancer); test: Antiproliferative SRB assay, DU145; assay type: cell-based; conditions: Homo sapiens, DU-145, read-out: GI50 DU145
[6] = paclitaxel reference, values in nM

Structure (SMILES): CCCCNc1ncc2c(-c3ccc(F)cc3)nn(CC3CCC(N)CC3)c2n1 (stereo not shown) [UNC569]
- Mer inhibitory potency [1]: subnanomolar

Structure (SMILES): OCCCNc1nc(Nc2ccc(F)cc2)nc2ccccc12 [7c, 2-(4-Fluorophenyl)amino-4-(3-hydroxypropyl)aminoquinazoline]
- GI50 KB-vin ([2]; SRB): 24200 nM
- GI50 KB ([3]; SRB): 17100 nM

Structure (SMILES): Nc1ccc(Nc2nc(NCCCO)c3ccccc3n2)cc1 [7b]
- GI50 KB-vin ([2]; SRB): 18700 nM
- GI50 KB ([3]; SRB): 19700 nM

Structure (SMILES): CC(C)n1cnc2/c(=N/c3cccc(Cl)c3)nc(NCCO)[nH]c21 [C-52]
- Mer inhibitory potency ([1]; literature Mer inhibitors): weak

Structure (SMILES): N#Cc1ccc(Nc2nc(NC3CCCC3)c3ccccc3n2)cc1 [6a, 2-(4-Cyanophenyl)amino-4-(N-cyclopentyl)aminoquinazoline]
- GI50 KB-vin ([2]; SRB): >31300 nM
- GI50 KB ([3]; SRB): >31300 nM

Structure (SMILES): CCCCNc1ncc(C(=O)NCc2ccc(-n3ccnc3)cc2)c(NC2CCC(O)CC2)n1 (stereo not shown) [UNC2881]
- Mer inhibitory potency [1]: subnanomolar

Structure (SMILES): CC(=O)O[C@H]1C(=O)[C@@]2(C)[C@H]([C@H](OC(=O)c3ccccc3)[C@]3(O)C[C@H](OC(=O)[C@H](O)[C@@H](NC(=O)c4ccccc4)c4ccccc4)C(C)=C1C3(C)C)[C@]1(OC(C)=O)CO[C@@H]1C[C@@H]2O [Paclitaxel]
- GI50 [4]: 0.0049 µM
- GI50 [5]: 0.0026 µM
- GI50 KB-vin [2, 6]: 948 nM
- GI50 KB [3, 6]: 2.6 nM
